The molecules below were run against T1, Human recombinant CXCR2 receptor (Homo sapiens, UniProt P25025) (assay: Receptor Binding Assay ([125I] IL-8, Ki) or [35S]-GTPγS Binding Assay (Kb) for human CXCR2 receptor). Details: CHO-K1 membranes expressing human CXCR2; Ki from Receptor Binding Assay, Kb from [35S]-GTPγS Binding Assay; table does not say which applies per value; compounds are trifluoroacetic acid salts.
T1 construct: Biosignal Packard Inc. (Kb, GTPγS assay); host or cells: CHO-K1
T1 sequence (P25025 1-360): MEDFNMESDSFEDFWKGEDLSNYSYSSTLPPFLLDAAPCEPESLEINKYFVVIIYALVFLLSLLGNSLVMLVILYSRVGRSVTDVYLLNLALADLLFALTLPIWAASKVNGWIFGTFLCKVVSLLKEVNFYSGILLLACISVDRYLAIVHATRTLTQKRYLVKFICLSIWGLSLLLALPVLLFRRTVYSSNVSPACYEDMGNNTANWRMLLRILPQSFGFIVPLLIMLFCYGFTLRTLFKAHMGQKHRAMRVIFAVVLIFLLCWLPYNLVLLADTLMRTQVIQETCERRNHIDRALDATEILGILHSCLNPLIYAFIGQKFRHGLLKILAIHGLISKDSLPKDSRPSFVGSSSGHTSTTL
Description: [^125I] IL-8 (human recombinant) was obtained from Amersham Pharmacia Biotech., with specific activity 2000 Ci/mmol. All other chemicals were of analytical grade. Human recombinant CXCR2 receptor expressed in Chinese hamster ovary cells (CHO-K1) was purchased from Euroscreen. The Chinese hamster ovary membranes were prepared according to protocol supplied by Euroscreen. Membrane protein concentration was determined using a Bio-Rad protein assay. Assays were performed in a 96-well micro plate format according the method described in White, et al., J Biol Chem., 1998, 273, 10095). Each reaction mixture contained 0.05 mg/ml CXCR2 membrane protein in 20 mM Bis-Tris-propane, pH 8.0, containing 1.2 mM MgSO4, 0.1 mM EDTA, 25 mM NaCl and 0.03% CHAPS. In addition, compound of interest was added which had been pre-dissolved in dimethylsulphoxide (DMSO) so as to reach a final concentration of between 10 μM and 0.0005 μM (final concentration of DMSO 2% (v/v)). Binding was initiated by addition of 0.02 nM ^125I-IL-8. After 2 hours at room temperature the plate was harvested using a Brandell™ 96-well harvester onto glass fibre filter plate (GF/c) blocked with 1% polyethyleneimine+0.5% BSA and washed 3 times with 25 mM NaCl, 10 mM TrisHCl, 1 mM MgSO4, 0.5 mM EDTA, 0.03% CHAPS, pH 7.4. The filter was dried at 50° C. overnight. Backseal was then applied to the plate and 50 μl of liquid scintillation fluid added. The counts were then measured on the Packard Topcount™ scintillation counter.
[^35S]-GTPγS Binding Assay for Human CXCR2 Receptor Using SPA Technology
[^35S]-GTPγS (with specific activity 1082 Ci/mmol) and wheat germ agglutinin poly vinyl toluene scintillation proximity beads were purchased from Amersham Pharmacia Biotech. The Chinese hamster ovary cell (CHO-K1) membranes expressing human CXCR2 receptors were purchased from Biosignal Packard Inc. All other chemicals were of analytical grade. White non-binding surface 96 well Optiplate™ microplates were obtained from Packard. Recombinant human IL-8 was synthesised, cloned and expressed in Escherichia coli as described previously (Lindley I, et al., Proc. Natl. Acad. Sci., 1988, 85(23):9199).
The assay was performed in duplicate in 96 well Optiplate™ microplate in a final volume of 250 μl per well. Compounds were diluted in DMSO (0.5% final concentration) and incubated in 20 mM HEPES buffer pH 7.4 containing 10 mM MgCl2, 100 mM NaCl, 1 mM EDTA plus 100 nM IL-8, 50 VM GDP and 500 pM [^35S]GTPγS per well. SPA beads (1 mg/well final concentration) were pre-mixed with the membranes ([…] final concentration) in assay buffer: 20 mM HEPES buffer pH 7.4 containing 10 mM MgCl2, 100 mM NaCl, 1 mM EDTA. The bead membrane mixture was then added to each well, plates were sealed and incubated at room temperature for 60 minutes. After which time the plate was centrifuged and immediately read on Packard TopCount™ scintillation counter, program [^35S dpm] for 1 min/well. Data was expressed as the % response to 100 nM IL-8 minus basal.
Ki data and Kb data are determined in the aforementioned Receptor Binding and [^35S]-GTPγS Binding Assays respectively.

Ki | SMILES
1.8 µM | Cn1ccc(-c2cc(C(=O)O)c3[nH]c(Nc4cccc(Cl)c4Cl)nc3c2)n1 [Example 12]
1.2 µM | O=C(O)c1cccc2nc(Nc3ccccc3-c3ccccc3)[nH]c12 [Example 5]
0.2 µM | O=C(O)c1cc(F)cc2nc(Nc3cccc(Cl)c3Cl)[nH]c12 [Example 1, 2-(2,3-Dichloro-phenylamino)-6-fluoro-3H-benzoimidazole-4-carboxylic acid]
1.5 µM | O=C(O)c1cc(-c2ccoc2)cc2nc(Nc3cccc(Cl)c3Cl)[nH]c12 [Example 10]
0.8 µM | Cc1c(F)cccc1Nc1nc2cccc(C(=O)O)c2[nH]1 [Example 3]

From patent publication US20080306064A1, “Benzimidazole Derivatives” (priority 2005, published 2008)
